Values after ≈ are worked out from the molar mass of the structure shown. “Also recorded” adds a separate entry of the source. Read-outs that look alike come from different tables or passages of the source.
Experiments:
[1] = test system: H. halys nymphs; test: Nymphicidal toxicity, treated filter paper in glass vial; format: in vivo; settings: for LC50 (95% CL): 24 hr
Procedure: Toxicities of MB, some compounds of formula 1, and commercial pesticides on H. halys nymphs: The bioassays were carried out in glass vials (20 mL), following a published procedure (Nielsen, A. L., et al., J. Econ. Entomol., 101: 1439-1442 (2008)). Filter paper was cut into round shape pieces (2.4 cm diameter). 50 μL acetone solution of one derivative or commercial pesticide with different concentrations was loaded onto the filter paper evenly, and the filter paper was dried for 1 min and then put into the bottom of vial. A small piece of green bean was put on the filter paper in the vial as food source. Different stages of H. halys nymphs were introduced into the vial and capped with a cotton ball. For each stage, 30 nymphs were used for each amount. For the nymphs of the first instar, 10 nymphs were put into 1 vial. For the nymphs of the second and third instar, 5 nymphs were put into 1 vial. For the nymphs of the fourth instar, 3 nymphs were put into 1 vial. For the nymphs of the fifth instar, 2 nymphs were put into 1 vial. The mortality was assessed after 24 hr.

[2] = test system: L. dispar larvae; test: Larvicidal toxicity, treated filter paper in Petri dish; format: in vivo; settings: for LC50 (95% CL): 1st stage larvae, 24 hr
Procedure: Toxicities of MB and some compounds of formula 1 on L. dispar larvae: The bioassays were carried out in plastic Petri dish loaded with filter paper, following a published procedure (Nielsen 2008). 600 μL acetone solution of one derivative with different concentrations was loaded onto the filter paper (90 mm diameter) evenly, and the filter paper was dried for 2 min and then put into the bottom of Petri dish. 10 L. dispar larvae were put onto the Petri dish and covered with a lid. 30 larvae were used for each amount. The mortality was assessed after 24 hr.

[3] = test system: S. invicta workers; settings: for increase of mean mortality compared with MB / mean mortality: dose 77.9 μg/ant, 24 h
Procedure: Fire ant bioassays were conducted in USDA, ARS Stoneville laboratory at 25° C., 80% R.H. with a 12:12 (L:D) photoperiod. Contact toxicities of MB and some compounds of formula 1 against fire ants: Topical application was used for contact toxicity bioassay. Only large workers were used for a purpose of relatively uniform body weight and ease of handling. For all compounds, acetone was used as a solvent. The solution was applied using a 0.779 μl capillary tube. Two experiments were conducted for assessing contact toxicity. […] In order to investigate the structure-activity relationship, LD50 values were also established for MB and EB. […] For each LD50 value, 5 doses of benzoates were used. Each dose was replicated 3 times. Each replicate consisted of 13 to 18 ants. Treated ants were placed in a 30-ml capped cup and dead ants were counted after 24 h.

[4] = Release rate (evaporation from cotton ball in tube); format: physicochemical; settings: room temperature, hood air flow 129 FPM
Procedure: Release rate: Release rate tests of selective compounds were carried out in the laboratory. 1 mL of each compound was loaded on a cotton ball in a polypropylene flex tube (1.5 mL Eppendorf micro-centrifuge tube, VWR International, Radnor, PA). The tubes were hung in the hood with air flow of 129 FPM. At 2 pm on each weekday, the tubes were weighed and recorded (Zhang, A., et al., Environ. Entomol., 37: 719-724 (2008)). Each treatment was replicated 5 times.

[5] = test system: H. halys eggs; test: Ovicidal toxicity, direct spray on eggs; format: in vivo; settings: eggs sprayed, 10 days
Text: (§1) Ovicidal toxicities of MB and some compounds of formula 1: The aqueous solutions of one of the compounds of formula 1 with designated concentrations with different concentrations of active ingredient (AI) were separately stored in glass spray bottles according to a published procedure (Cuthbertson 2014). The eggs (10 for H. halys and 100 for P. xylostella) were laid on filter papers in Petri dishes. Different aqueous insecticidal solutions were sprayed on the surfaces of different eggs three times (˜0.5 mL) to completely cover the treatment areas. Then the Petri dishes were covered with lids and maintained in a fume hood for 10 days. The Petri dishes were then inspected for presence of nymph/larvae development or numbers of unhatched eggs.

[6] = test system: D. suzukii; test: Insecticidal activity on larvae and pupae development and adult emergence in pre-infested blueberries (dip); format: in vivo, Drosophila suzukii; settings: for Adults / Larvae / Pupae: pre-infested berries soaked 2 min in 1% solution, assessed after 10 days at room temperature, mean of three replicates (standard error)
Procedure: Impacts of MB and other compounds on D. suzukii control: To investigate the acute toxicity of some compounds of formula 1 against D. suzukii, a published procedure was followed (Cuthbertson, A. G. S., et al., Insects, 5: 488-498 (2014)). First, mixed-sex adults D. suzukii (100) were introduced into a plastic cage (30×30×30 cm) and reared on blueberries (100) for 4 days. After that, the infested blueberries were taken out from the cage. Half of the blueberries (50) were dipped in 100 mL aqueous emulsion of each compound listed in Table 1 at 1% concentration for 2 min as treatment, while the other half of the blueberries (50) were dipped in DI water for 2 min as blank control. Then the corresponding blueberries were separately taken out, placed in two different Petri dishes, and allowed to air dry for 2 h. Second, treatment and blank control blueberries were respectively stored in two plastic cups (32 oz) with closed caps and incubated at room temperature for 10 days. The emergence of adults was then subsequently assessed. The developments of larvae and pupae were further inspected by dissection of the treatment and blank control berries. Each treatment and blank control was repeated three times.

[7] = test system: S. invicta workers; test: Fumigant toxicity in sealed glass flask; format: in vivo, Solenopsis invicta; settings: for fumigant toxicity against S. invicta (in words): in vivo; for LC50 / mortality at 1.43 µg/mL: Solenopsis invicta
Procedure: A 250-ml glass flask (the whole volume is 280 ml) was used to house worker ants in fumigant toxicity bioassays. Two micro-liter of acetone solution of the tested compound was applied onto a paraffin film, which was used to seal the flask with ants. The treated spot of the paraffin film faced the inside of the flask. The upper part of the flask was coated with Fluon® to prevent ants from contacting the test material. Two experiments were conducted. […] LC50 value was established using 5 dosages. Each dosage was replicated 3 times for each of 3 colonies. Each replicate consisted of 15 to 26 ants. Ants that could not stand by themselves were considered dead. Dead ants were counted after 24 h.

[8] = test system: H. halys nymphs; settings: 24 hr, copied from previous research, cited from earlier work
[9] = test system: Plutella xylostella eggs; test: Ovicidal toxicity, direct spray on eggs; format: in vivo; settings: hatchability after 10 days; 0.05% and 0.1% concentrations (FIG. 3)
Text: as §1

[10] = 24 h, read-out: mean LC50 value, mean over colonies, 24 h
[11] = 24 h, read-out: mean mortality, dosage 1.43 μg/ml, 24 h

Row | SMILES | LC50 (95% CL) ([1]; 2nd stage nymphs) | LC50 (95% CL) [2] | LD50 ([3]; colony 1, 24 h) [μg/ant] | LD50 ([3]; colony 2, 24 h) [μg/ant] | LD50 ([3]; colony 3, 24 h) [μg/ant] | increase of mean mortality compared with MB [3] [times] | mean mortality [3] [%] | first order evaporation rate constant k (exponent of fitted curve) [4] | LC50 (95% CL) [5] | Adults [6] | Larvae [6] | Pupae [6] | fumigant toxicity against S. invicta (in words) [7] | LC50 ([7]; 24 h, colony 1, 24 h) [mg/L] | LC50 ([7]; 24 h, colony 2, 24 h) [mg/L] | LC50 ([7]; 24 h, colony 3, 24 h) [mg/L] | LC50 [7, 10] [mg/L] | mortality at 1.43 µg/mL [7, 11] [%] | ovicidal toxicity against P. xylostella eggs (in words) [9] | further results
1 | COC(=O)c1ccccc1OC [M2MOB, methyl 2-methoxybenzoate] | 1.530 (1.309-1.951) μL/vial | 0.230 (0.170-0.294) mg/cm^2 | 67.73 | 96.43 | 78.34 | 7 | 55.74 | 8E-04 | 0.011 (0.006-0.015) mg/cm^2 | 0 | 0 | 0 | significantly reduced | – | – | – | – | – | – | decreased toxicities compared with MB ([2]; from LC50 values): 50%
2 | COC(=O)c1cccc(C)c1 [M3MB, methyl 3-methylbenzoate] | – | 0.102 (0.083-0.121) mg/cm^2 | 70.32 | 107.48 | 67.73 | – | – | – | 0.016 (0.009-0.024) mg/cm^2 | 0 | 0 | 0 | – | 0.62 (≈ 4.13 µM) | 0.7 (≈ 4.66 µM) | 0.63 (≈ 4.2 µM) | 0.65 (≈ 4.33 µM) | ~100 | – | LC50 (95% CL) ([1]; 4th stage nymphs): 2.433 (2.000-3.417) μL/vial
3 | COC(=O)c1ccccc1 [MB, methyl benzoate] | – | 0.114 (0.091-0.134) mg/cm^2 | 149.39 | 93.65 | 128.45 | – | 7.67 | 0.162 | 0.020 (0.012-0.026) mg/cm^2 | 0 | 0 | 0 | powerful fumigant toxicities | – | – | – | – | – | – | LC50 (95% CL) ([8]; 1st stage nymphs): 1.03 (0.93-1.10) μL/vial; LC50 (95% CL) ([8]; 2nd stage nymphs): 1.01 (0.86-1.12) μL/vial; LC50 (95% CL) ([8]; 3rd stage nymphs): 1.23 (1.12-1.33) μL/vial; LC50 (95% CL) ([8]; 4th stage nymphs): 2.39 (2.19-2.60) μL/vial; LC50 (95% CL) ([8]; 5th stage nymphs): 1.77 (1.60-1.93) μL/vial; LC50 ([7]; 24 h, colony 1, 24 h, read-out: LC50): 0.77 mg/L (≈ 5.66 µM); LC50 ([7]; 24 h, colony 2, 24 h, read-out: LC50): 0.66 mg/L (≈ 4.85 µM); LC50 ([7]; 24 h, colony 3, 24 h, read-out: LC50): 0.82 mg/L (≈ 6.02 µM); mortality at 1.43 µg/mL ([7]; 24 h, dosage 1.43 μg/ml, 24 h, read-out: mean mortality): ~100%; LC50 ([7]; 24 h, mean over colonies, 24 h, read-out: mean LC50 value): 0.75 mg/L (≈ 5.51 µM); mean mortality ([7]; dosage 1.43 μg/ml, 24 h): 100%
4 | C=COC(=O)c1ccccc1 [VB, vinyl benzoate] | 1.131 (0.757-1.337) μL/vial | 0.065 (0.059-0.071) mg/cm^2 | – | – | – | – | – | – | 0.017 (0.010-0.024) mg/cm^2 | 0 | 0 | 0 | powerful fumigant toxicities | 0.95 (≈ 6.41 µM) | 0.77 (≈ 5.2 µM) | 0.96 (≈ 6.48 µM) | 0.89 (≈ 6.01 µM) | ~100 | highest toxicity | larvicidal toxicity against L. dispar (in words) ([2]; in vivo): highest larvicidal toxicity; times more toxic than commercial pesticide acetamiprid ([2]; ratio of LC50 values): 3.4 times; times more toxic than commercial pesticide pyriproxyfen ([2]; ratio of LC50 values): 1.3 times
5 | CCCCCOC(=O)c1ccccc1 [nPeB, n-pentyl benzoate] | – | 0.165 (0.118-0.208) mg/cm^2 | 35.97 | 41.16 | 28.64 | 13 | 99.26 | – | – | 36.3(3.9) | 5.3(0.9) | 37.7(6.7) | – | – | – | – | – | – | comparable toxicity comparing with MB | toxicity against H. halys nymphs (in words) ([1]; in vivo): did not show toxicities; contact toxicity against S. invicta (in words) ([3]; in vivo): comparable results; also recorded: potent contact toxicities; insecticidal toxicity against D. suzukii (in words) ([6]; 1% concentration on 4 days pre-infested blueberries, 10 days incubation): did not show any insecticidal activities

Reference: patent publication US20230371508A1, “COMPOSITIONS AND METHODS FOR KILLING INSECT AND NON-INSECT PESTS” (The United States of America, as represented by the …, priority 2018, published 2023)
